In patent US9856279B2 (AGIOS PHARMACEUTICALS, INC, priority 2011, dated 2018):

Each molecule was assayed against IDH1 R132H (Homo sapiens, UniProt O75874, R132H) (assay: Assay for IDH1 R132H inhibitors (NADPH/aKG, resazurin detection)). Details: Table 3; enzyme assay, 50 minutes at room temperature; read-out: IC50 (IDH1 R132H Inhibition).
Assay type: biochemical
How it was run: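 Compound added to substrate mix (8 uM NADPH, 2 mM aKG), then enzyme mix (0.2 μg/ml IDH1 R132H); 50 min RT in 20 mM Tris pH 7.5, 150 mM NaCl, 10 mM MgCl2, 0.03% BSA. Resazurin detection mix (30 μM) 5 min RT; resorufin fluorescence Ex544/Em590.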

Sequence of IDH1 R132H (O75874 whole entry R132H): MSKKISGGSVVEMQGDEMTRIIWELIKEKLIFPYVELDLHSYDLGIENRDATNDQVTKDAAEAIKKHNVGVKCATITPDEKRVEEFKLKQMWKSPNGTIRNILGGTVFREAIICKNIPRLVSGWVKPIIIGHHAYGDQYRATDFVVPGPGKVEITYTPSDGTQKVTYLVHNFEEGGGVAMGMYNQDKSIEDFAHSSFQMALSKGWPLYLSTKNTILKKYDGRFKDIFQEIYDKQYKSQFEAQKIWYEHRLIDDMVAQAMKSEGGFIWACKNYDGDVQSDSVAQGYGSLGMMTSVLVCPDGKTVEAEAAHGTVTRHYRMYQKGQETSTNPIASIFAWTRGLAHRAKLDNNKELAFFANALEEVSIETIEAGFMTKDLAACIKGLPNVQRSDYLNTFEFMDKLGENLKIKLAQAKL

First: COc1ccccc1-c1cc(C(C)C)nc(N2CCN(C(=O)c3ccco3)CC2)c1C#N [Compound 104, 2-(4-(furan-2-carbonyl)piperazin-1-yl)-6-isopropyl-4-(2-methoxyphenyl)nicotinonitrile]
Second: COc1ccccc1-c1cc(C(C)C)nc(N2CCN(C(=O)Cc3ccccc3)C(C)C2)c1C#N (stereo not shown) [Compound 149]
The IC50 of the first is higher: 5000 to 15000 nM for the first, 1000 to 5000 nM for the second.

`COCCC(=O)N1CCN(c2nc(C3CC3)c(-c3cc4ccccc4s3)cc2C#N)C[C@H]1C` [Compound 247, (R)-5-(benzo[b]thiophen-2-yl)-6-cyclopropyl-2-(4-(3-methoxypropanoyl)-3-methylpiperazin-1-yl)nicotinonitrile] and `COCCC(=O)N1CCN(c2nc(C3CC3)c(-c3cccc(F)c3)cc2C#N)C[C@H]1C` [Compound 229, (R)-6-cyclopropyl-5-(3-fluorophenyl)-2-(4-(3-methoxypropanoyl)-3-methylpiperazin-1-yl)nicotinonitrile] cannot be ordered by IC50: 1000 to 5000 nM for the first, ≤ 1000 nM for the second.

`C[C@@H]1CN(c2nc(C3CCCCC3)cc(-c3ccccc3)c2C#N)C[C@H](C)N1C(=O)c1ccoc1` [Compound 142, 6-cyclohexyl-2-((3S,5R)-4-(furan-3-carbonyl)-3,5-dimethylpiperazin-1-yl)-4-phenylnicotinonitrile] and `CC1CN(c2nc(C3CCCCC3)cc(-c3ccccc3)c2C#N)CCN1C(=O)c1ccoc1` (stereo not shown) [Compound 138, 6-cyclohexyl-2-(4-(furan-3-carbonyl)-3-methylpiperazin-1-yl)-4-phenylnicotinonitrile] fall in the same range of IC50: 1000 to 5000 nM for the first, 1000 to 5000 nM for the second.

`CC(C)c1cc(-c2cccc(F)c2)c(C#N)c(N2CCN(C(=O)c3ccoc3)[C@H](C)C2)n1` [Compound 156] and `CC(C)c1cc(-c2ccccc2)c(C#N)c(N2CCN(C(=O)c3ccoc3)[C@@H](C)C2)n1` [Compound 132, (S)-2-(4-(furan-3-carbonyl)-3-methylpiperazin-1-yl)-6-isopropyl-4-phenylnicotinonitrile] fall in the same range of IC50: 1000 to 5000 nM for the first, 1000 to 5000 nM for the second.

`COCCC(=O)N1CCN(c2nc(C(C)C)c(-c3ccoc3)cc2C#N)C[C@H]1C` [Compound 205, (R)-5-(furan-3-yl)-6-isopropyl-2-(4-(3-methoxypropanoyl)-3-methylpiperazin-1-yl)nicotinonitrile] and `COCCC(=O)N1CCN(c2nc(C(C)C)c(-c3ccc(C)c(F)c3)cc2C#N)C[C@H]1C` [Compound 221, (R)-5-(3-fluoro-4-methylphenyl)-6-isopropyl-2-(4-(3-methoxypropanoyl)-3-methylpiperazin-1-yl)nicotinonitrile] fall in the same range of IC50: 1000 to 5000 nM for the first, 1000 to 5000 nM for the second.

`COCCC(=O)N1CCN(c2nc(C(C)C)c(-c3cccc(OC(F)(F)F)c3)cc2C#N)C[C@H]1C` [Compound 230, (R)-6-isopropyl-2-(4-(3-methoxypropanoyl)-3-methylpiperazin-1-yl)-5-(3-(trifluoromethoxy)phenyl)nicotinonitrile] and `COCCC(=O)N1CCN(c2nc(C3CC3)c(-c3ccc(F)c(Cl)c3)cc2C#N)C[C@H]1C` [Compound 248, (R)-5-(3-chloro-4-fluorophenyl)-6-cyclopropyl-2-(4-(3-methoxypropanoyl)-3-methylpiperazin-1-yl)nicotinonitrile] cannot be ordered by IC50: 1000 to 5000 nM for the first, ≤ 1000 nM for the second.

`COCCC(=O)N1CCN(c2nc(C3CC3)c(-c3cccc(C)c3)c(C)c2C#N)C[C@H]1C` [Compound 243, (R)-6-cyclopropyl-2-(4-(3-methoxypropanoyl)-3-methylpiperazin-1-yl)-4-methyl-5-m-tolylnicotinonitrile] and `COCCC(=O)N1CCN(c2nc(C3CC3)c(-c3ccc(F)cc3F)c(C)c2C#N)C[C@H]1C` [Compound 256, 6-cyclopropyl-5-(2,4-difluorophenyl)-2-((R)-4-(3-methoxypropanoyl)-3-methylpiperazin-1-yl)-4-methyl-nicotinonitrile] cannot be ordered by IC50: ≤ 1000 nM for the first, ≤ 1000 nM for the second.

`CC(C)c1nc(N2CCN(C(=O)c3ccoc3)CC2)c(C#N)cc1-c1ccccc1` [Compound 124, 2-(4-(furan-3-carbonyl)piperazin-1-yl)-6-isopropyl-5-phenylnicotinonitrile] and `CC(C)c1nc(N2CCN(C(=O)c3ccoc3)CC2c2ccccc2)c(C#N)cc1-c1ccccc1` (stereo not shown) [Compound 159, 2-(4-(furan-3-carbonyl)-2-phenylpiperazin-1-yl)-6-isopropyl-5-phenylnicotinonitrile] fall in the same range of IC50: 5000 to 15000 nM for the first, 5000 to 15000 nM for the second.

First: CC(C)c1cc(-c2ccccc2)c(C#N)c(N2CCN(C(=O)c3ccccc3)CC2)n1 [Compound 100, 2-(4-benzoylpiperazin-1-yl)-6-isopropyl-4-phenylnicotinonitrile]
Second: Cc1ccccc1-c1cc(C(C)C)nc(N2CCN(C(=O)c3ccoc3)[C@H](C)C2)c1C#N [Compound 158]
The IC50 of the first is higher: 5000 to 15000 nM for the first, 1000 to 5000 nM for the second. The second is the more potent here.

`Cc1ccc(-c2cc(C#N)c(N3CCN(C(=O)c4ccoc4C)[C@H](C)C3)nc2C(C)C)cc1` [Compound 182, (R)-6-isopropyl-2-(3-methyl-4-(2-methylfuran-3-carbonyl)piperazin-1-yl)-5-p-tolylnicotinonitrile] was tested, and the IC50 was ≤ 1000 nM.

Same assay, conditions: enzyme assay of Example 12; read-out: IDH1R132H IC50

`COCCC(=O)N1CCN(c2nc(C3CC3)c(-c3ccc(C(=O)N4CCCC4)cc3)c(C)c2C#N)C[C@H]1C` [Compound 333, (R)-6-cyclopropyl-2-[4-(3-methoxy-propionyl)-3-methyl-piperazin-1-yl]-4-methyl-5-[4-(pyrrolidine-1-carbonyl)-phenyl]-nicotinonitrile] and `CNS(=O)(=O)c1ccc(-c2c(C3CC3)nc(N3CCN(C(=O)CCOC)[C@H](C)C3)c(C#N)c2C)cc1` [Compound 331, (R)-4-{5-cyano-2-cyclopropyl-6-[4-(3-methoxy-propionyl)-3-methyl-piperazin-1-yl]-4-methyl-pyridin-3-yl}-N-methyl-benzenesulfonamide] cannot be ordered by IC50: < 500 nM for the first, < 500 nM for the second.

`COCCC(=O)N1CCN(c2nc(C3CC3)c(-c3cccc4nonc34)cc2C#N)C[C@H]1C` [Compound 437, (R)-5-benzo[1,2,5]oxadiazol-4-yl-6-cyclopropyl-2-[4-(3-methoxy-propionyl)-3-methyl-piperazin-1-yl]-nicotinonitrile] and `COCCC(=O)N1CCN(c2nc(C3CC3)c(-c3ccc(N)nc3)cc2C#N)C[C@H]1C` [Compound 314, (R)-6′-amino-2-cyclopropyl-6-(4-(3-methoxypropanoyl)-3-methylpiperazin-1-yl)-3,3′-bipyridine-5-carbonitrile] fall in the same range of IC50: 500 to 1000 nM for the first, 500 to 1000 nM for the second.

`C[C@@H]1CN(c2nc(C3CC3)c(Nc3ccnc(Cl)c3)cc2C#N)CCN1C(=O)CCO` [Compound 661, (R)-5-((2-chloropyridin-4-yl)amino)-6-cyclopropyl-2-(4-(3-hydroxypropanoyl)-3-methylpiperazin-1-yl)nicotinonitrile] and `C=Cc1ccnc(N(c2cc(C=C)ccn2)c2cc(C#N)c(N3CCN(C(=O)CCOC)[C@H](C)C3)nc2C2CC2)c1` [Compound 646, (R)-5-(bis(4-vinylpyridin-2-yl)amino)-6-cyclopropyl-2-(4-(3-methoxypropanoyl)-3-methylpiperazin-1-yl)nicotinonitrile] cannot be ordered by IC50: < 500 nM for the first, < 500 nM for the second.

`N#Cc1cncc(-c2cc(C#N)c(N3CCN(C(=O)CC(F)(F)F)[C@H](C4CC4)C3)nc2C2CC2)c1` [Compound 525, (R)-2-cyclopropyl-6-(3-cyclopropyl-4-(3,3,3-trifluoropropanoyl)piperazin-1-yl)-[3,3′-bipyridine]-5,5′-dicarbonitrile] and `N#Cc1cncc(-c2cc(C#N)c(N3CCN(C(=O)C4CC4)[C@H](C4CC4)C3)nc2C2CC2)c1` [Compound 494, (R)-6-(4-(cyclopropanecarbonyl)-3-cyclopropylpiperazin-1-yl)-2-cyclopropyl-[3,3′-bipyridine]-5,5′-dicarbonitrile] cannot be ordered by IC50: < 500 nM for the first, < 500 nM for the second.

`C=Cc1cc(-c2c(C3CC3)nc(N3CCN(C(=O)/C=C/CCO)[C@H](C(C)C)C3)c(C#N)c2C)ccn1` [Compound 795, (R,E)-2-cyclopropyl-6-(4-(5-hydroxypent-2-enoyl)-3-isopropylpiperazin-1-yl)-4-methyl-2′-vinyl-3,4′-bipyridine-5-carbonitrile] and `N#Cc1cc(-c2ccnc(N)n2)c(C2CC2)nc1N1CCN(C(=O)CC(F)(F)F)[C@H](C2CC2)C1` [Compound 534] cannot be ordered by IC50: < 500 nM for the first, < 500 nM for the second.

`N#Cc1cc(-c2cccc3cnccc23)c(C2CC2)nc1N1CCN(C(=O)CC(F)(F)F)C(C(F)(F)F)C1` (stereo not shown) [Compound 399, 6-cyclopropyl-5-(isoquinolin-5-yl)-2-(3-(trifluoromethyl)-4-(3,3,3-trifluoropropanoyl)piperazin-1-yl)nicotinonitrile] and `N#Cc1cc(-c2ccc3c(c2)C(=O)C(=O)N3)c(C2CC2)nc1N1CCN(C(=O)C2CC2)[C@H](C2CC2)C1` [Compound 504, (R)-2-(4-(cyclopropanecarbonyl)-3-cyclopropylpiperazin-1-yl)-6-cyclopropyl-5-(2,3-dioxoindolin-5-yl)nicotinonitrile] fall in the same range of IC50: 500 to 1000 nM for the first, 500 to 1000 nM for the second.

`COCCC(=O)N1CCN(c2nc(C3CC3)c(N3CCN(CC4CC4)CC3)cc2C#N)C[C@H]1C` [Compound 378, (R)-6-cyclopropyl-5-(4-(cyclopropylmethyl)piperazin-1-yl)-2-(4-(3-methoxypropanoyl)-3-methylpiperazin-1-yl)nicotinonitrile] and `Cn1ncc(-c2cc(C#N)c(N3CCN(C(=O)C4CC4)[C@H](C4CC4)C3)nc2C2CC2)cc1=O` [Compound 640, (R)-2-(4-(cyclopropanecarbonyl)-3-cyclopropylpiperazin-1-yl)-6-cyclopropyl-5-(1-methyl-6-oxo-1,6-dihydropyridazin-4-yl)nicotinonitrile] cannot be ordered by IC50: < 500 nM for the first, < 500 nM for the second.

With `N#Cc1cc(-c2cnn(C3CCC(O)C3)c2)c(C2CC2)nc1N1CCN(C(=O)C2CC2)[C@H](C2CC2)C1` (stereo partly drawn) [Compound 493, 2-((R)-4-(cyclopropanecarbonyl)-3-cyclopropylpiperazin-1-yl)-6-cyclopropyl-5-(1-(3-hydroxycyclopentyl)-1H-pyrazol-4-yl)nicotinonitrile] the IC50 was 500 to 1000 nM.
